molecular target: T1, human EP1 receptor (Homo sapiens, UniProt P34995); assay: Test 1: Human EP1 receptor radioligand binding assay ([3H]-PGE2, transfected HEK-293 cell membranes); set-up: expressed in transfected cells; host or cells: HEK-293 cell membranes; settings: at 10 μM
T1 sequence (P34995 1-402): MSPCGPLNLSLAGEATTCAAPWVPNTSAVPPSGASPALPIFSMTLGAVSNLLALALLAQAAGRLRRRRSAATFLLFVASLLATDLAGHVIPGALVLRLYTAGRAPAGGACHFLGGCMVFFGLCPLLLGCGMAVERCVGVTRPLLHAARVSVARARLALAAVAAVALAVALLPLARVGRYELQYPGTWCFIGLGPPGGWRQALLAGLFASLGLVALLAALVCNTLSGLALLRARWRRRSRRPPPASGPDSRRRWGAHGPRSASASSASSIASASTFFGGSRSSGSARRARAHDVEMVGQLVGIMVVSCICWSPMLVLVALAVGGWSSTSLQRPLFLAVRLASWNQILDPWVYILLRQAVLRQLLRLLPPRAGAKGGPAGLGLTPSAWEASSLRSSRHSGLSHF
Protocol: Test 1: Human EP1 Receptor Radioligand Binding Assay
To investigate binding properties of EP1 receptor ligands to human EP1 receptor, transfected HEK-293 cell membranes and [3H]-PGE2 (Perkin Elmer) were used. In 96-well plates the assay was carried out with a total reaction volume of 250 μl, containing 25 μl of membrane suspension (30 μg protein/well), 25 μl of [3H]-PGE2 (10 nM) in either absence or presence of 25 μl of either buffer or PGE2 (10 μM) for total and non-specific binding, respectively. Binding buffer contained 10 mM MES, 1 mM MgCl2 and 1 mM EDTA at pH 6.0. Plates were incubated at 25° C. for 60 minutes. After the incubation period, 200 μl of incubate were transferred to MultiScreen HTS, FB plates (Millipore), filtered and plates were washed 6 times with ice-cold 10 mM MES, 1 mM MgCl2 and 1 mM EDTA at pH 6.0. Filters were dried and counted in a MicroBeta scintillation counter (Perkin-Elmer) using EcoScint liquid scintillation cocktail.
Percentage inhibition was calculated relating compounds activity to the 0% inhibition of the wells incubated with 10 nM [3H]-PGE2 alone (total binding) and 100% inhibition of the wells incubated with 10 nM [3H]-PGE2 plus 10 μM PGE2 (non-specific binding).

Compound	Results of Test 1 (Binding assay), % inh
CC(C)(F)COc1ccc(Cl)cc1Cn1ncc2c(C(=O)[O-])ccnc21.[Na+] [Example 213]	# (% inh > 75)
1-(5-chloro-2-((2-chloro-5-fluorobenzyl)oxy)benzyl)-1H-indole-4-carboxylic acid [Example 30]	## (45 < % inh < 75)

same assay, conditions: read-out: Results of Test 1 (Binding assay), % inh

Compound	inhibition at 10 µM [%]
COc1ccc(OCc2ccc(F)cc2F)c(Cn2ccc3c(C(=O)O)cccc32)c1 [Example 101, sodium 1-{2-[(2,4-difluorobenzyl)oxy]-5-methoxybenzyl}-1H-indole-4-carboxylate]	45 to 75
CCCOc1ccc(F)cc1Cn1ncc2c(C(=O)O)cccc21 [Example 135]	45 to 75
O=C(O)c1cccc2c1ccn2Cc1cc(F)ccc1OCc1cc(F)ccc1F [Example 32, 1-(2-((2,5-difluorobenzyl)oxy)-5-fluorobenzyl)-1H-indole-4-carboxylic acid]	45 to 75
O=C(O)c1cccc2c1ccn2Cc1cc(C(F)(F)F)ccc1OCc1ccc(Br)cc1F [Example 50, 1-(2-((4-bromo-2-fluorobenzyl)oxy)-5-(trifluoromethyl)benzyl)-1H-indole-4-carboxylic acid]	> 75
CCCOc1ccc(F)cc1Cn1ccc2c(C(=O)O)cccc21 [Example 104]	45 to 75
CC(C)COc1ccc(F)cc1Cn1ccc2c(C(=O)O)cccc21 [Example 108]	45 to 75
O=C(O)c1cccc2c1ccn2Cc1cc(Cl)ccc1OCc1c(F)cc(Cl)cc1F [Example 57, 1-(5-chloro-2-((4-chloro-2,6-difluorobenzyl)oxy)benzyl)-1H-indole-4-carboxylic acid]	> 75
O=C(O)c1cccc2c1ccn2Cc1cc(Br)ccc1OCc1ccc(F)cc1Cl [Example 27, 1-(5-bromo-2-((2-chloro-4-fluorobenzyl)oxy)benzyl)-1H-indole-4-carboxylic acid]	> 75
CC(C)C(C)Oc1ccc(Cl)cc1CN1CCCc2c(C(=O)O)cccc21 (stereo not drawn) [Example 176]	45 to 75
CC(C)(C)COc1ccc(Cl)cc1CN1CCc2c(C(=O)O)cccc21 [Example 203]	45 to 75
O=C(O)c1cccc2c1c(CCO)cn2Cc1cc(F)ccc1OCc1ccc(F)cc1F [Example 159]	> 75
O=C(O)c1cccc2c1ccn2Cc1cc(Cl)ccc1OCC(F)(F)F [Example 112]	> 75
O=C(O)c1cccc2c1ccn2Cc1cc(Cl)ccc1OCc1cc(F)c(F)cc1Cl [Example 31, 1-(5-chloro-2-((2-chloro-4,5-difluorobenzyl)oxy)benzyl)-1H-indole-4-carboxylic acid]	45 to 75
O=C(O)c1ncnc2c1ccn2Cc1cc(Cl)ccc1OCc1ccc(Cl)cc1F [Example 98]	> 75
O=C(O)c1cccc2c1ccn2Cc1cc(Br)ccc1OCc1ccc(F)c(F)c1F [Example 22, 1-(5-bromo-2-((2,3,4-trifluorobenzyl)oxy)benzyl)-1H-indole-4-carboxylic acid]	45 to 75
O=C(O)c1cccc2c1ccn2Cc1cc(Cl)ccc1OCc1ccccc1 [Example 44, 1-(2-(benzyloxy)-5-chlorobenzyl)-1H-indole-4-carboxylic acid]	> 75
O=C(O)c1cccc2c1ccn2Cc1cc(Cl)ccc1OCc1cc(F)c(F)cc1F [Example 15, 1-(5-chloro-2-((2,4,5-trifluorobenzyl)oxy)benzyl)-1H-indole-4-carboxylic acid]	> 75
O=C(O)c1cccc2c1ccn2Cc1cc(F)ccc1OCc1ccc(Br)cc1F [Example 56, 1-(2-((4-bromo-2-fluorobenzyl)oxy)-5-fluorobenzyl)-1H-indole-4-carboxylic acid]	> 75
O=C(O)c1cccc2c1ccn2Cc1cc(Cl)ccc1OC1CCCC1 [Example 105]	> 75
CCCOc1ccc(Cl)cc1Cn1ccc2c(C(=O)O)cccc21 [Example 106]	45 to 75
COCCOc1ccc(Cl)cc1CN1CCc2c(C(=O)O)cccc21 [Example 201]	45 to 75
O=C(O)c1cccc2c1ccn2Cc1cc(Cl)ccc1OCCF [Example 111]	45 to 75
CC(C)(F)COc1ccc(Cl)cc1Cn1cc(CCO)c2c(C(=O)O)cccc21 [Example 158]	> 75
O=C(O)c1ccnc2c1ccn2Cc1cc(Cl)ccc1OCc1ccc(F)cc1F [Example 91]	> 75
O=C(O)c1cccc2c1ccn2Cc1cc(Br)ccc1OCc1ccc(F)cc1C(F)(F)F [Example 26, 1-(5-bromo-2-((4-fluoro-2-(trifluoromethyl)benzyl)oxy)benzyl)-1H-indole-4-carboxylic acid]	> 75
O=C(O)c1cccc2c1cnn2Cc1cc(Cl)ccc1OC1CCCC1 [Example 133]	> 75
O=C(O)c1cccc2c1ccn2Cc1cc(F)ccc1OCc1cc(F)c(F)cc1F [Example 16, 1-(5-fluoro-2-((2,4,5-trifluorobenzyl)oxy)benzyl)-1H-indole-4-carboxylic acid]	> 75
O=C(O)c1ccc(F)c2c1ccn2Cc1ccccc1OCc1ccc(F)cc1F [Example 140]	45 to 75

molecular target: T1, human EP1 receptor; assay: Test 2: Measurement of IP1 responses by HTRF, suspended HEK-293 cells stably expressing human EP1 receptors, PGE2 30 nM; assay type: cell-based; set-up: expressed in transfected cells; settings: HEK293, at 10 μM, read-out: Results of Test 2 (Functional assay), % inh
Protocol: Test 2: Measurement of IP1 responses by Homogeneous Time Resolved Fluorescence
IP1 measurements on HEK-293 cells that stably expressed human EP1 receptors were performed by using a system based on Homogeneous Time Resolved Fluorescense (HTRF) (Gabriel et al., 2003). This technology allows the direct measurement of IP1 in living cells. The principle of this assay is based on competition between IP1 produced by cells and IP1-d2 conjugate for the binding with monoclonal anti-IP1-cryptate conjugate. The HTRF IP1 kit from CisBio was used according to the manufacturer's directions. The experimental procedure was performed as stated below.
Suspended cells (30,000 cells per well) were added to 96-well culture plates in 40 μl of stimulation buffer (supplied by the kit). Compounds were then added in 20 μl of stimulation buffer and incubated at 37° C. for 15 minutes followed by 10 μl of PGE2 to a final concentration of […]. After 90 minutes at 37° C., the reaction was stopped lysing the cells with a mixture of 15 μl of cryptate and 15 μl of IP1-d2 prepared in the lysis buffer supplied by the manufacturer. Plates were incubated for an additional hour at room temperature and read at 665 nm/620 nm using an UltraEvolution Plate reader (Tecan).
Antagonist percentage inhibition was calculated relating compounds activity to the 0% inhibition of the wells incubated with 10 nM PGE2 alone and 100% inhibition of the wells incubated with 10 nM PGE2 plus 1 μM of the reference antagonist.

Compound	inhibition at 10 µM [%]
O=C(O)c1ccc2c(ccn2Cc2cc(Br)ccc2OCc2ccc(F)cc2F)c1 [Example 74, 1-(5-bromo-2-((2,4-difluorobenzyl)oxy)benzyl)-1H-indole-5-carboxylic acid]	45 to 75
O=C(O)c1cccc2c1ccn2Cc1cc(Cl)ccc1OCC1CC1 [Example 7, 1-(5-chloro-2-(cyclopropylmethoxy)benzyl)-1H-indole-4-carboxylic acid]	> 75
O=C(O)c1cccc2c1ccn2Cc1cc(Cl)cc(Cl)c1OCc1ccc(Cl)cc1F [Example 59, 1-(3,5-dichloro-2-((4-chloro-2-fluorobenzyl)oxy)benzyl)-1H-indole-4-carboxylic acid]	45 to 75
O=C(O)c1cccc2c1ccn2Cc1cc(Cl)ccc1OCc1ccc(Br)cc1F [Example 46, 1-(2-((4-bromo-2-fluorobenzyl)oxy)-5-chlorobenzyl)-1H-indole-4-carboxylic acid]	> 75
O=C(O)c1cccc2c1ccn2Cc1cc(Cl)cc(Br)c1OCc1ccc(Br)cc1F [Example 28, 1-(3-bromo-2-((4-bromo-2-fluorobenzyl)oxy)-5-chlorobenzyl)-1H-indole-4-carboxylic acid]	45 to 75
O=C(O)c1ccc2c(ccn2Cc2cc(F)ccc2OCc2cc(F)c(F)cc2Cl)c1 [Example 72, 1-(2-((2-chloro-4,5-difluorobenzyl)oxy)-5-fluorobenzyl)-1H-indole-5-carboxylic acid]	> 75
O=C(O)c1cccc2c1ccn2Cc1cc(Br)ccc1OCc1c(F)cc(Cl)cc1F [Example 60, 1-(5-bromo-2-((4-chloro-2,6-difluorobenzyl)oxy)benzyl)-1H-indole-4-carboxylic acid]	> 75

same assay, conditions: at 10 μM

Compound	Results of Test 2 (Functional assay), % inh
O=C(O)CCc1cccc2c1ccn2Cc1cc(Cl)ccc1OCc1ccc(Cl)cc1F [Example 62, 3-(1-(5-chloro-2-((4-chloro-2-fluorobenzyl)oxy)benzyl)-1H-indol-4-yl)propanoic acid]	$ (% inh > 75)
O=C(O)CCc1cccc2c1ccn2Cc1cc(Cl)ccc1OCc1ccc(Cl)cc1F [Example 89, 3-(1-(5-chloro-2-((4-chloro-2-fluorobenzyl)oxy)benzyl)-1H-indol-4-yl)propanoic acid]	$$ (45 < % inh < 75)

Reference: patent publication US9518015B2, “EP1 receptor ligands” (LABORATORIOS DEL DR. ESTEVE, S.A., priority 2011, dated 2016)
